What is called EC50 is the concentration that produces a half-maximal response.

SMILES strings stand for the structures. Like-named read-outs stand apart in the source and are kept apart here.

This is an account of results in US7041698B2, “Hepatitis C virus inhibitors” (Bristol-Myers Squibb Company, priority 2002, dated 2006).

The test deals with HCV replicon in Huh7 cells. The test can be described thus: HCV replicon cell-based assay. The arrangement: species or system HCV strain 1B. The conditions noted are these: Hepatitis C virus. In short, it runs like this:
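Huh7 cells carrying a genotype 1b subgenomic replicon (NS3-NS5B, neo) treated 4 days at 37° C with compound (0.5% DMSO final). NS3 protease activity read in lysates with 10 μM FRET peptide (340/490 nm, kinetic), giving EC50. Confirmed by Taqman qRT-PCR of HCV RNA and a Renilla luciferase replicon.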
In general terms: Replicon systems follow genome replication, usually without infectious particles.

For the compound `C=CC1C[C@]1(NC(=O)[C@@H]1C[C@@H](OC(=O)Nc2ccccc2-c2ccccc2)CN1C(=O)[C@@H](NC(=O)OC(C)(C)C)C(C)(C)C)C(=O)NS(=O)(=O)C1CC1` (stereo partly drawn) [Compound 8, BocNH-P3(t-BuGly)-P2(Hyp(O—CO(NH-biphen-2-yl)))-P1(1R,2S VinylAcca)—CONHSO2Cyclopropane], the EC50 is 100 to 1000 nM (Huh-7, 96 h, HCV replicon, 4 days, read-out: EC50 range) and 284 nM (Huh-7, HCV replicon, read-out: EC50 value in the replicon assay).
